{"source": "patent US6849628B2", "about": "“Optically active compounds” (The University of Strathclyde, priority 1986, dated 2005)", "origin": "cited, not measured here", "key": {"[1]": {"target": "T1, thymidylate synthase from L. casei (Lacticaseibacillus casei, UniProt P00469)", "T1 sequence (P00469 1-316)": "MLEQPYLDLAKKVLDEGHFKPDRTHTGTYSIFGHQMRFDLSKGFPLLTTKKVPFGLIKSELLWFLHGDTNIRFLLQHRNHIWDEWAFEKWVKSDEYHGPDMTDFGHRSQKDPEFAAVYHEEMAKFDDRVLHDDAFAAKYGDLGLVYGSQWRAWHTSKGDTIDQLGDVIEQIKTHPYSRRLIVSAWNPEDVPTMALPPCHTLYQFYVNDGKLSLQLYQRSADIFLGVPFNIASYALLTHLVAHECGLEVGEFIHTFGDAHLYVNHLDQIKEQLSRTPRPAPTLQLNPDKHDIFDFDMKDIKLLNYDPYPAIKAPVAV", "details": "Leary et al 1973"}, "[2]": {"target": "5,10-methylene tetrahydrofolate dehydrogenase from E. coli (Escherichia coli, UniProt P24186)", "details": "Scott and Donaldson 1964"}, "[3]": {"target": "T2, glycinamide ribonucleotide (GAR) formyl-transferase from chicken liver (Gallus gallus, UniProt P21872)", "T2 construct": "host or cells: chicken liver", "T2 sequence (P21872 1-1003)": "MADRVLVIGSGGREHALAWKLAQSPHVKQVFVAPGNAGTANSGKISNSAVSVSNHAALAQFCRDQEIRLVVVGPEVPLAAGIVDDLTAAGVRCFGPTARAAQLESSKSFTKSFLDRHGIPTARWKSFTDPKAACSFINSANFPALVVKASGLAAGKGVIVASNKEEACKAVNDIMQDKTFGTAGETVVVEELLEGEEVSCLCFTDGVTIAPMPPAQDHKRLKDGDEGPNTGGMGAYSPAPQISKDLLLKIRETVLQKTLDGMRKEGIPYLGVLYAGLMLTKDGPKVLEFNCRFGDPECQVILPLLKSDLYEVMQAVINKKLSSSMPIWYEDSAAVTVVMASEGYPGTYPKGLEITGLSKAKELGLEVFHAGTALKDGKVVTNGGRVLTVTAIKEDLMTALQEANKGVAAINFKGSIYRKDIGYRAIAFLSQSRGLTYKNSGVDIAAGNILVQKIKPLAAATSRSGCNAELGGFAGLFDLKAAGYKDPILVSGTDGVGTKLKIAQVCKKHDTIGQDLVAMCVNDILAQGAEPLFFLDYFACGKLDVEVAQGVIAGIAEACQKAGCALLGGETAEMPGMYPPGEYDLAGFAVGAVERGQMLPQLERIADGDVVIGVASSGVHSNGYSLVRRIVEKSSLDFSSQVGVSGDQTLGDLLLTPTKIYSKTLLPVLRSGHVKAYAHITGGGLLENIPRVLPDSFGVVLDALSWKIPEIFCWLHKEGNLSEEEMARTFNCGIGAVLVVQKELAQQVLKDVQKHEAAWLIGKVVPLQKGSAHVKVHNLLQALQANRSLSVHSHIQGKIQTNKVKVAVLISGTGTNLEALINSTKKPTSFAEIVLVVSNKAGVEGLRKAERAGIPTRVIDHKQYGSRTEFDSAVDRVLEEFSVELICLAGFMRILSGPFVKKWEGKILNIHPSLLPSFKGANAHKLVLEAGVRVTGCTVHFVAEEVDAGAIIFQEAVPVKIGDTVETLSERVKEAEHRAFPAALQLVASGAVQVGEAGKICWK", "details": "Smith, Benkovic and Benkovic 1981"}, "one-carbon metabolism": {"tested_on": "one-carbon metabolism", "details": "Montgomery et al 1981; only the (6S) diastereoisomer is effective"}}}
{"compound": "Nc1nc2c(c(=O)[nH]1)N1CN(c3ccc(C(=O)N[C@@H](CCC(=O)O)C(=O)O)cc3)CC1CN2", "note": "(single isomer, unassigned) [non-natural diastereoisomer of 5,10-methylene tetrahydrofolate, 5,10-methylene tetrahydrofolate]", "values": [{"measurement": "inhibition of thymidylate synthase", "setting": "[1]", "value": "inhibited"}, {"measurement": "inhibition of 5,10-methylene tetrahydrofolate dehydrogenase", "setting": "[2]", "value": "inhibited"}]}
{"compound": "Nc1nc2c(c(=O)[nH]1)NC(CN(C=O)c1ccc(C(=O)N[C@@H](CCC(=O)O)C(=O)O)cc1)CN2", "note": "(single isomer, unassigned) [non-natural diastereoisomer of 10-formyltetrahydrofolate, 10-formyltetrahydrofolate]", "values": [{"measurement": "inhibition of GAR formyl-transferase", "setting": "[3]", "value": "potent competitive inhibitor"}]}
{"compound": "calcium 5-formyl-(6S) tetrahydrofolate [Ib]", "values": [{"measurement": "effectiveness in restoring one-carbon metabolism", "setting": "one-carbon metabolism", "value": "effective in restoring one-carbon metabolism"}]}
